Measured values taken from PubChem BioAssay AID1963429 (Molecular Pharmacology Branch, DTP, NCI, 2024).
Values joined by “and” are separate entries in the source; they are usually repeats but may differ in a detail not shown here. Equal values may be shown once.

Test system: 126254-015-R-J1-PDC complex spheroid growth, % test/control
Test: Anticancer human tumor 126254-015-R-J1-PDC patient-derived soft tissue sarcoma cell line growth inhibition [Asc]
Conditions: for viability, T/C: stronger effect = lower value
In short: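 Tumor cells were grown as complex spheroids with human endothelial cells (HUVEC) and human mesenchymal stem cells as stroma. Agents were tested alone and in combination, in half-log steps down from the clinical Cmax, or from 10 microM where Cmax was unknown.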

[1] = curve of first compound, second compound 0.1 µM
[2] = curve of first compound, second compound 0.316 µM
[3] = curve of first compound, second compound 1 µM
[4] = curve of first compound, second compound 3.16 µM
[5] = curve of first compound, second compound 10 µM
[6] = second compound 0.1 µM, first compound 0.00316 µM
[7] = second compound 0.1 µM, first compound 0.01 µM
[8] = second compound 0.1 µM, first compound 0.0316 µM
[9] = second compound 0.1 µM, first compound 0.1 µM
[10] = second compound 0.316 µM, first compound 0.00316 µM
[11] = second compound 0.316 µM, first compound 0.01 µM
[12] = second compound 0.316 µM, first compound 0.0316 µM
[13] = second compound 0.316 µM, first compound 0.1 µM
[14] = second compound 1 µM, first compound 0.00316 µM
[15] = second compound 1 µM, first compound 0.01 µM
[16] = second compound 1 µM, first compound 0.0316 µM
[17] = second compound 1 µM, first compound 0.1 µM
[18] = second compound 3.16 µM, first compound 0.00316 µM
[19] = second compound 3.16 µM, first compound 0.01 µM
[20] = second compound 3.16 µM, first compound 0.0316 µM
[21] = second compound 3.16 µM, first compound 0.1 µM
[22] = second compound 10 µM, first compound 0.00316 µM
[23] = second compound 10 µM, first compound 0.01 µM
[24] = second compound 10 µM, first compound 0.0316 µM
[25] = second compound 10 µM, first compound 0.1 µM
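Also: spheroids exposed to compound for seven days.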
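For viability, T/C in this document: 100% = DMSO vehicle control wells.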

Work on Cn1ncnc1[C@H]1c2n[nH]c(=O)c3cc(F)cc(c23)N[C@@H]1c1ccc(F)cc1 + Cc1c(S(C)(=O)=O)c(-c2cc(F)cc(N3CCN(c4ccc(NS(=O)(=O)c5ccc(NC(CCN6CCC(C(=O)OCCCP(=O)(O)O)CC6)CSc6ccccc6)c(S(=O)(=O)C(F)(F)F)c5)cc4)CC3)c2)c(-c2ccc(Cl)cc2)n1C(C)C yielded an IC50 [1] of over 100 nM, an IC50 [2] of over 100 nM and an IC50 [3] of over 100 nM. The IC50 [4] was over 100 nM, the IC50 [5] was 99.3 nM and the viability, T/C (second compound 0.1 µM, first compound 0.000316 µM) was 90.6%. It also gave a viability, T/C (second compound 0.1 µM, first compound 0.001 µM) of 89.9%, a viability, T/C [6] of 82.1% and a viability, T/C [7] of 73.9%. For the same compound, the viability, T/C [8] was 76.9%, the viability, T/C [9] was 65.2% and the viability, T/C (second compound 0.316 µM, first compound 0.000316 µM) was 87.7%. It also gave a viability, T/C (second compound 0.316 µM, first compound 0.001 µM) of 79%, a viability, T/C [10] of 71.6% and a viability, T/C [11] of 69.2%. For the same compound, the viability, T/C [12] was 69.7%, the viability, T/C [13] was 58.5% and the viability, T/C (second compound 1 µM, first compound 0.000316 µM) was 79%. The viability, T/C (second compound 1 µM, first compound 0.001 µM) was 85.1%, the viability, T/C [14] was 78.4% and the viability, T/C [15] was 63.9%. For the same compound, the viability, T/C [16] was 64%, the viability, T/C [17] was 61.6% and the viability, T/C (second compound 3.16 µM, first compound 0.000316 µM) was 83.4%. The viability, T/C (second compound 3.16 µM, first compound 0.001 µM) was 68%, the viability, T/C [18] was 70.3% and the viability, T/C [19] was 61%. It also gave a viability, T/C [20] of 57.5%, a viability, T/C [21] of 55% and a viability, T/C (second compound 10 µM, first compound 0.000316 µM) of 82%. For the same compound, the viability, T/C (second compound 10 µM, first compound 0.001 µM) was 72%, the viability, T/C [22] was 77.7% and the viability, T/C [23] was 68.7%. The viability, T/C [24] was 55.2% and the viability, T/C [25] was 50%.
For COc1c(OCCCN2CCOCC2)ccc2c3n(c(=NC(=O)c4cnc(N)nc4)nc12)CCN3 + Cc1c(S(C)(=O)=O)c(-c2cc(F)cc(N3CCN(c4ccc(NS(=O)(=O)c5ccc(NC(CCN6CCC(C(=O)OCCCP(=O)(O)O)CC6)CSc6ccccc6)c(S(=O)(=O)C(F)(F)F)c5)cc4)CC3)c2)c(-c2ccc(Cl)cc2)n1C(C)C, the IC50 [1] was 48.5 nM, the IC50 [2] was 43.8 nM and the IC50 [3] was 47.9 nM. The IC50 [4] was 42 nM, the IC50 [5] was 45.3 nM and the viability, T/C [6] was 96.5%. The viability, T/C [7] was 84.5%, the viability, T/C [8] was 63.5% and the viability, T/C [9] was 28.3%. The viability, T/C (second compound 0.1 µM, first compound 0.316 µM) was 16%, the viability, T/C (second compound 0.1 µM, first compound 1 µM) was 8.08% and the viability, T/C [10] was 88%. For the same compound, the viability, T/C [11] was 76.6%, the viability, T/C [12] was 59.1% and the viability, T/C [13] was 29.7%. For the same compound, the viability, T/C (second compound 0.316 µM, first compound 0.316 µM) was 15.3%, the viability, T/C (second compound 0.316 µM, first compound 1 µM) was 8.05% and the viability, T/C [14] was 83.7%. The viability, T/C [15] was 75.5%, the viability, T/C [16] was 61.9% and the viability, T/C [17] was 30.4%. The viability, T/C (second compound 1 µM, first compound 0.316 µM) was 14.9%, the viability, T/C (second compound 1 µM, first compound 1 µM) was 8.15% and the viability, T/C [18] was 77.5%. For the same compound, the viability, T/C [19] was 77.5%, the viability, T/C [20] was 54.9% and the viability, T/C [21] was 30.1%. It also gave a viability, T/C (second compound 3.16 µM, first compound 0.316 µM) of 14.3%, a viability, T/C (second compound 3.16 µM, first compound 1 µM) of 8.66% and a viability, T/C [22] of 84.2%. The viability, T/C [23] was 87.7%, the viability, T/C [24] was 55.6% and the viability, T/C [25] was 30.6%. The viability, T/C (second compound 10 µM, first compound 0.316 µM) was 15.8% and the viability, T/C (second compound 10 µM, first compound 1 µM) was 7.09%.
Compound O=C(c1ccc(F)c(F)c1Nc1ccc(I)cc1F)N1CC(O)([C@@H]2CCCCN2)C1 + CCN1C(C(=O)NC23CCC(C(=O)O)(CC2)CC3)C(c2cccc(Cl)c2F)C2(C(=O)Nc3cc(Cl)ccc32)C12CCCCC2 has an IC50 (curve of first compound, second compound 0.03 µM) of 552 nM, an IC50 (curve of first compound, second compound 0.0949 µM) of 622 nM and an IC50 (curve of first compound, second compound 0.3 µM) of 570 nM. It also gave an IC50 (curve of first compound, second compound 0.949 µM) of 638 nM, an IC50 (curve of first compound, second compound 3 µM) of 641 nM and a viability, T/C (second compound 0.03 µM, first compound 0.00316 µM) of 100%. It also gave a viability, T/C (second compound 0.03 µM, first compound 0.01 µM) of 108%, a viability, T/C (second compound 0.03 µM, first compound 0.0316 µM) of 97.2% and a viability, T/C (second compound 0.03 µM, first compound 0.1 µM) of 96.2%. It also gave a viability, T/C (second compound 0.03 µM, first compound 0.316 µM) of 65.6%, a viability, T/C (second compound 0.03 µM, first compound 1 µM) of 33.2% and a viability, T/C (second compound 0.0949 µM, first compound 0.00316 µM) of 105%. The viability, T/C (second compound 0.0949 µM, first compound 0.01 µM) was 109%, the viability, T/C (second compound 0.0949 µM, first compound 0.0316 µM) was 107% and the viability, T/C (second compound 0.0949 µM, first compound 0.1 µM) was 97.8%. The viability, T/C (second compound 0.0949 µM, first compound 0.316 µM) was 68.9%, the viability, T/C (second compound 0.0949 µM, first compound 1 µM) was 36.8% and the viability, T/C (second compound 0.3 µM, first compound 0.00316 µM) was 107%. For the same compound, the viability, T/C (second compound 0.3 µM, first compound 0.01 µM) was 106%, the viability, T/C (second compound 0.3 µM, first compound 0.0316 µM) was 112% and the viability, T/C (second compound 0.3 µM, first compound 0.1 µM) was 82.9%. For the same compound, the viability, T/C (second compound 0.3 µM, first compound 0.316 µM) was 68.8%, the viability, T/C (second compound 0.3 µM, first compound 1 µM) was 34.3% and the viability, T/C (second compound 0.949 µM, first compound 0.00316 µM) was 102%. For the same compound, the viability, T/C (second compound 0.949 µM, first compound 0.01 µM) was 110%, the viability, T/C (second compound 0.949 µM, first compound 0.0316 µM) was 106% and the viability, T/C (second compound 0.949 µM, first compound 0.1 µM) was 86.2%. It also gave a viability, T/C (second compound 0.949 µM, first compound 0.316 µM) of 63.5%, a viability, T/C (second compound 0.949 µM, first compound 1 µM) of 41.8% and a viability, T/C (second compound 3 µM, first compound 0.00316 µM) of 99.5%. The viability, T/C (second compound 3 µM, first compound 0.01 µM) was 99.7%, the viability, T/C (second compound 3 µM, first compound 0.0316 µM) was 100% and the viability, T/C (second compound 3 µM, first compound 0.1 µM) was 87.2%. The viability, T/C (second compound 3 µM, first compound 0.316 µM) was 69.2% and the viability, T/C (second compound 3 µM, first compound 1 µM) was 38.2%.
O=C(c1cc(Cc2n[nH]c(=O)c3ccccc23)ccc1F)N1CCN(C(=O)C2CC2)CC1 was tested, and the viability, T/C (compound 0.0316 µM) was 95.9% and 107% and 96.9%, the viability, T/C (compound 0.1 µM) was 93.1% and 96.8% and 103% and the viability, T/C (compound 0.316 µM) was 88.4% and 102% (2×). For the same compound, the viability, T/C (compound 1 µM) was 86.6% and 93.3% and 97.7%, the viability, T/C (compound 3.16 µM) was 79.3% and 83.1% and 87.7% and the viability, T/C (compound 10 µM) was 64.2% and 68.1% and 68.5%. It also gave an IC50 (curve of compound) of over 10000 nM.
